Measured values from article PMC8688152, “Distinct classes of potassium channels fused to GPCRs as electrical signaling biosensors” (Cell Reports Methods, 2021).

Key:
M2_T-00-43 = biological target: T1, M2_T-00-43 (UniProt P08172+P97438); assay: TEVC recording of M2_T-00-43 ICCR in Xenopus oocytes; assay type: cell-based, human (M2), mouse (TREK-1); parameters: full-length (−00) or M2 deleted of its last nine residues (−09) in the indicated ICCRs; expressed in transfected cells; host or cells: Xenopus oocytes (mRNA injection)
T1 sequence (P08172+P97438 with tags, fused parts or gaps): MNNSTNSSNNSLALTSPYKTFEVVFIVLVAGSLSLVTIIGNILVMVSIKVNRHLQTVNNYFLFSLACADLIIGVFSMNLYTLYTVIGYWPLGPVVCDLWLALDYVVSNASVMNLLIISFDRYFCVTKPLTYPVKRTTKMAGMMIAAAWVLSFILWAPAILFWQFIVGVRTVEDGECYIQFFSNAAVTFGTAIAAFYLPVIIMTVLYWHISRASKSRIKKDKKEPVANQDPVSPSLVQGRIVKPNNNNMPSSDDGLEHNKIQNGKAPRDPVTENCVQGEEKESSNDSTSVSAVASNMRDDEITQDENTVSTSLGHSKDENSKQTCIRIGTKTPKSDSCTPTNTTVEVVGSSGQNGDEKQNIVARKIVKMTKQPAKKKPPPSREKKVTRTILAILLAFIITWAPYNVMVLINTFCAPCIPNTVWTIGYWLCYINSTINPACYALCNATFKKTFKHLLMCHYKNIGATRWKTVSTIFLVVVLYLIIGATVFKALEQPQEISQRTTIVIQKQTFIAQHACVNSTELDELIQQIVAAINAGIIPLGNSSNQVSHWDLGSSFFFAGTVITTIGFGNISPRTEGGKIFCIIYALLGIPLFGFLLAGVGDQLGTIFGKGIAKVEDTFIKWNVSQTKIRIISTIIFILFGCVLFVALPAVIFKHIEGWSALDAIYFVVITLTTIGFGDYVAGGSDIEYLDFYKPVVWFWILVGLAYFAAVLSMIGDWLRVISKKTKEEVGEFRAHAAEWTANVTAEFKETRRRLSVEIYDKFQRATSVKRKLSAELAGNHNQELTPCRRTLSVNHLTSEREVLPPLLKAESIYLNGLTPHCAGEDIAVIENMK
Description: (§1) Xenopus oocytes were prepared as previously reported ([Moreau et al., 2008]). Briefly, after surgical retrieval, the oocytes were defolliculated by type 1A collagenase. Each oocyte was injected with 50 nl of RNAse-free water containing the desired mRNAs. The mRNA quantities used per oocyte were: ICCR with Kcv, 2.7 ng (M2_Kcv and D2_Kcv) and 2.9 ng (OXTR_Kcv); ICCR with mTREK-1, 4.2 ng; ICCR with Kir6.2, 4.3 ng; M2, 2.3 ng; D2, 2.2 ng; Kir3.4T, 2.2 ng; Kcv 0.46 ng and mTREK-1, 2.1 ng. Microinjected oocytes were incubated 2 to 3 days at 19°C in modified-Barth's solution (in mM: 1 KCl, 0.82 MgSO4, 88 NaCl, 2.4 NaHCO3, 0.41 CaCl2, 16 HEPES, pH 7.4) supplemented with 100 U.ml^−1 of penicillin and streptomycin and 0.1 mg.mL^−1 of gentamycin. Animal handling and experiments fully conformed to European regulations and were approved by the French Ministry of Higher Education and Research (APAFIS#4420-2016030813053199 v4 to CM). Authorization of the animal facility has been delivered by the Prefect of Isere (Authorization #D 38 185 10 001).
Two-electrode voltage-clamp (TEVC) recordings were performed automatically with HiClamp robots (MultiChannel Systems). These TEVC robots rapidly change the applied solutions by transferring the oocytes in different wells of a 96-well plate. […] Microelectrodes were filled with […]. During recordings, oocytes were incubated in low potassium concentration buffer (ND96, in mM: 96 NaCl, 2 KCl, 1.8 CaCl2, 1 MgCl2, 5 HEPES, pH 7.4 supplemented with 0.3 niflumic acid), and in high potassium buffer (in mM: 91 KCl, 1.8 CaCl2, 1 MgCl2, 5 HEPES, 0.3 niflumic acid, pH 7.4). The membrane voltage was clamped to −50 mV. Ligands and BaCl2 were diluted in the high potassium buffer. […] Ligand effects were measured in high potassium concentration buffer with the membrane potential clamped to −50 mV and at 19°C.
Change of potassium current induced by ligand was calculated either with the barium-sensitive currents as a 0-reference for Kcv-based ICCRs or with the currents in ND96 for mTREK-1 ICCRs. Softwares created by Michel Vivaudou ([Vivaudou, 2019]) were used to extract the raw data.

[1] = tested on: M2_Kcv-09-xx constructs with larger deletions up to 12 residues; assay type: cell-based, human (M2), Paramecium bursaria chlorella virus 1 (Kcv); settings: ACh 5 μM, TEVC
Description: as §1, with “Authorization of the animal facility has been delivered by the Prefect of Isere (Authorization #D 38 185 10 001).” left out
Two-electrode voltage-clamp (TEVC) recordings were performed automatically with HiClamp robots (MultiChannel Systems). […] Ligand effects were measured in high potassium concentration buffer with the membrane potential clamped to −50 mV and at 19°C.
Change of potassium current induced by ligand was calculated either with the barium-sensitive currents as a 0-reference for Kcv-based ICCRs or with the currents in ND96 for mTREK-1 ICCRs. […]

M2_T-00-43 S300A S333A = biological target: T2, M2_T-00-43 S300A S333A (UniProt P08172+P97438, S315A/S348A); assay: TEVC recording of phosphorylation-deficient M2_T-00-43 S300A S333A; assay type: cell-based, human (M2), mouse (TREK-1); settings: ACh 5 μM
T2 construct: full-length (−00) or M2 deleted of its last nine residues (−09) in the indicated ICCRs; expressed in transfected cells; host or cells: Xenopus oocytes (mRNA injection); gene synthesized by GeneCust
Description: (§2) Microelectrodes were filled with […]. […] The membrane voltage was clamped to −50 mV.

M2_Kcv-09-03 = biological target: T3, M2_Kcv-09-03 (UniProt P08172+Q84568); assay: TEVC recording of M2_Kcv-09-03 ICCR expressed in Xenopus oocytes; assay type: cell-based, human (M2), Paramecium bursaria chlorella virus 1 (Kcv)
T3 construct: expressed in transfected cells; host or cells: Xenopus oocytes (mRNA injection)
T3 sequence (P08172+Q84568 with tags, fused parts or gaps): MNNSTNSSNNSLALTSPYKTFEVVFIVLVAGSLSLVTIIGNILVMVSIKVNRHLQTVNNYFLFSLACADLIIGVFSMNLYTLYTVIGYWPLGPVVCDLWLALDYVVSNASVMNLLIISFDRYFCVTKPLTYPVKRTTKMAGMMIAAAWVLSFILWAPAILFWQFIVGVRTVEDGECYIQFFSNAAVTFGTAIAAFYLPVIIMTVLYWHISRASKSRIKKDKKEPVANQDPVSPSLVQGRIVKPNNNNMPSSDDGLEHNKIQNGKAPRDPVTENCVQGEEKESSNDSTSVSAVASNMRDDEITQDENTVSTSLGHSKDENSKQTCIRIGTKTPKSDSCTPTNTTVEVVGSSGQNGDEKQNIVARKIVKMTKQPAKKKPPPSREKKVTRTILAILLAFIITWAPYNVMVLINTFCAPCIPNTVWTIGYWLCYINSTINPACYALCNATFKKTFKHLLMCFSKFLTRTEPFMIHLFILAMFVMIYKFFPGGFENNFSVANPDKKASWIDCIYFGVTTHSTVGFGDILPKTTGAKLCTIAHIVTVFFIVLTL
Description: as §2

T2 sequence (P08172+P97438 fused P97438:S300A/P97438:S333A): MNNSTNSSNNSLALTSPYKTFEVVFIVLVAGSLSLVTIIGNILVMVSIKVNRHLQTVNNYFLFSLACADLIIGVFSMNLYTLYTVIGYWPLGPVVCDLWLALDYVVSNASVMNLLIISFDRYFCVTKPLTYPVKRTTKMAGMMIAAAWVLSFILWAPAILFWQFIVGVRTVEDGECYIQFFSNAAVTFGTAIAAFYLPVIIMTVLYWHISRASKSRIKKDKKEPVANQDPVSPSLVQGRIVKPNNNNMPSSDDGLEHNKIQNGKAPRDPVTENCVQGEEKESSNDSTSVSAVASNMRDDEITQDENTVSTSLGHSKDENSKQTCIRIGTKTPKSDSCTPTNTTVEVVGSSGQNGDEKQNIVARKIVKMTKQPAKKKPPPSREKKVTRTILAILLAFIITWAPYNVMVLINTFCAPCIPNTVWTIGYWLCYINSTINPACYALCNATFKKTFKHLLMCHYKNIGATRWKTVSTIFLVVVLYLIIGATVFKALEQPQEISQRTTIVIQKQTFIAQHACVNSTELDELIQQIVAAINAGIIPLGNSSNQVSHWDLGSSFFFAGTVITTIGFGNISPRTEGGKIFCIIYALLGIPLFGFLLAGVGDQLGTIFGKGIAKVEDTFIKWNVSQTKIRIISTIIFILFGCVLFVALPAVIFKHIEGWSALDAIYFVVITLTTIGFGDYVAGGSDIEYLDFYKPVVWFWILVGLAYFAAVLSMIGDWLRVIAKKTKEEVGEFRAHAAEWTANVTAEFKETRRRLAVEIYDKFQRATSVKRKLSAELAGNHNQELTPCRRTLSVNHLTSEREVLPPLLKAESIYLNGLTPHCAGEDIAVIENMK

Which results are given for CC(=O)OCC[N+](C)(C)C [ACh, acetylcholine]?
Hill coefficient (nH) on M2_T-00-43 (M2_T-00-43): 0.76; activation: % of current change induced by ACh 5 μM on M2_T-00-43 (M2_T-00-43): 49.9% ± 5.1%; activation: % of current change induced by ACh 5 μM on M2_T-00-43 co-expressed with PTX (M2_T-00-43; 5 μM, co-injection of mRNA for pertussis toxin S1 subunit, mean ± SEM): 49.3% ± 4.4%; response of M2_Kcv-09 constructs with larger deletions up to 12 residues to ACh [1]: did not yield significant responses; activation of the S300A S333A double mutant of M2_T-00-43 by ACh (M2_T-00-43 S300A S333A): preserved activation; Hill coefficient (nH) on M2_Kcv-09-03 (M2_Kcv-09-03; concentration-effect curve, TEVC): 0.37; inhibition at 5 µM (M2_Kcv-09-03; read-out: inhibition: % of current change induced by ACh 5 μM on M2_Kcv-09-03, 5 μM, Xenopus oocytes, 91 mM K+, Vm = −50 mV, printed as inhibition, mean ± SEM): 53.4%
